Test results taken from US20110200626A1, “IQGAP3 EPITOPE PEPTIDES AND VACCINES CONTAINING THE SAME” (Oncotherapy Science, Inc., priority 2008, published 2011).
Ends that are not written are not given here.

Columns and labels:
peptide-pulsed T2 cells [1] = experiment: IFN-gamma ELISPOT assay on CTLs induced with HLA-A*0201 restricted peptides; format: cell-based, human; conditions: against peptide-pulsed target cells compared with control without peptide, listed as IQGAP3-A02-10-1424
peptide-pulsed T2 cells [2] = experiment: IFN-gamma ELISA assay on CTL lines (HLA-A*0201); format: cell-based, human; conditions: target cells pulsed with corresponding peptide vs without peptide

“SLTAhSLLPL (SLTAHSLLPL; not fully specified (residue 5); printed as SLTAhSLLPL) [SEQ ID NO: 141]” was tested, and the “IFN-gamma production of peptide-induced CTLs (ELISPOT)” value (peptide-pulsed T2 cells [1]) was “potent IFN-gamma production ability” and the “IFN-gamma production of established CTL lines (ELISA)” value (peptide-pulsed T2 cells [2]) was “potent IFN-gamma production”.
